Target: human JAK1 (a.a. 837-1142)
Assay: In vitro JAK kinase assay (HTRF, phosphorylation of a biotinylated peptide), JAK1
Type: biochemical
Settings: measured at 1 mM ATP; JAK2 IC50 / JAK1 IC50
How it was run: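 N-terminal His-tagged catalytic domains, baculovirus-expressed in insect cells, phosphorylated a biotinylated peptide for 1 hr at room temperature. EDTA stop was followed by SA-APC and Eu-Py20 antibody for 40 minutes, with phosphopeptide read by HTRF.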

| IC50 Ratio JAK2/JAK1 | SMILES |
| --- | --- |
| 4.9 | Cn1ccc(S(=O)(=O)N2CCC(N3CC(CC#N)(n4cc(-c5ncnc6[nH]ccc56)cn4)C3)CC2)n1 [Example 251, {1-{1-[(1-methyl-1H-pyrazol-3-yl)sulfonyl]piperidin-4-yl}-3-[4-(7H-pyrrolo[2,3-d]pyrimidin-4-yl)-1H-pyrazol-1-yl]azetidin-3-yl}acetonitrile] |
| 5.8 | N#CCC1(n2cc(-c3ncnc4[nH]ccc34)cn2)CN(C2CCN(S(=O)(=O)C3CCCC3)CC2)C1 [Example 253, {1-[1-(cyclopentylsulfonyl)piperidin-4-yl]-3-[4-(7H-pyrrolo[2,3-d]pyrimidin-4-yl)-1H-pyrazol-1-yl]azetidin-3-yl}acetonitrile] |
| 5.0 | Cn1cnc(S(=O)(=O)N2CCC(N3CC(CC#N)(n4cc(-c5ncnc6[nH]ccc56)cn4)C3)CC2)c1 [Example 258, {1-{1-[(1-methyl-1H-imidazol-4-yl)sulfonyl]piperidin-4-yl}-3-[4-(7H-pyrrolo[2,3-d]pyrimidin-4-yl)-1H-pyrazol-1-yl]azetidin-3-yl}acetonitrile] |
| 4.6 | Cc1nc(S(=O)(=O)N2CCC(N3CC(CC#N)(n4cc(-c5ncnc6[nH]ccc56)cn4)C3)CC2)cn1C [Example 259, {1-{1-[(1,2-dimethyl-1H-imidazol-4-yl)sulfonyl]piperidin-4-yl}-3-[4-(7H-pyrrolo[2,3-d]pyrimidin-4-yl)-1H-pyrazol-1-yl]azetidin-3-yl}acetonitrile] |
| 7.1 | Cc1noc(C)c1S(=O)(=O)N1CCC(N2CC(CC#N)(n3cc(-c4ncnc5[nH]ccc45)cn3)C2)CC1 [Example 260, {1-{1-[(3,5-dimethylisoxazol-4-yl)sulfonyl]piperidin-4-yl}-3-[4-(7H-pyrrolo[2,3-d]pyrimidin-4-yl)-1H-pyrazol-1-yl]azetidin-3-yl}acetonitrile] |
| 7.4 | N#CCC1(n2ccc(-c3ncnc4[nH]ccc34)c2)CN(C2CCN(C(=O)c3cccc(C#N)c3)CC2)C1 [Example 262, 3-[(4-{3-(cyanomethyl)-3-[3-(7H-pyrrolo[2,3-d]pyrimidin-4-yl)-1H-pyrrol-1-yl]azetidin-1-yl}piperidin-1-yl)carbonyl]benzonitrile] |
| 9.5 | N#CCC1(n2ccc(-c3ncnc4[nH]ccc34)c2)CN(C2CCN(C(=O)c3ccc(C#N)cc3F)CC2)C1 [Example 264, 4-[(4-{3-(cyanomethyl)-3-[3-(7H-pyrrolo[2,3-d]pyrimidin-4-yl)-1H-pyrrol-1-yl]azetidin-1-yl}piperidin-1-yl)carbonyl]-3-fluorobenzonitrile] |
| 6.6 | N#CCC1(n2ccc(-c3ncnc4[nH]ccc34)c2)CN(C2CCN(C(=O)c3c(F)cc(C#N)cc3F)CC2)C1 [Example 265, 4-[(4-{3-(cyanomethyl)-3-[3-(7H-pyrrolo[2,3-d]pyrimidin-4-yl)-1H-pyrrol-1-yl]azetidin-1-yl}piperidin-1-yl)carbonyl]-3,5-difluorobenzonitrile] |
| 6.6 | N#CCC1(n2ccc(-c3ncnc4[nH]ccc34)c2)CN(C2CCN(C(=O)c3cc(F)ccc3C(F)(F)F)CC2)C1 [Example 266, {1-{1-[5-fluoro-2-(trifluoromethyl)benzoyl]piperidin-4-yl}-3-[3-(7H-pyrrolo[2,3-d]pyrimidin-4-yl)-1H-pyrrol-1-yl]azetidin-3-yl}acetonitrile] |
| 6.6 | N#CCC1(n2ccc(-c3ncnc4[nH]ccc34)c2)CN(C2CCN(C(=O)c3ccc(C(F)(F)F)c(F)c3)CC2)C1 [Example 267, {1-{1-[3-fluoro-4-(trifluoromethyl)benzoyl]piperidin-4-yl}-3-[3-(7H-pyrrolo[2,3-d]pyrimidin-4-yl)-1H-pyrrol-1-yl]azetidin-3-yl}acetonitrile] |
| 3.1 | N#CCC1(n2ccc(-c3ncnc4[nH]ccc34)c2)CN(C2CCN(C(=O)c3cccc(C(F)(F)F)c3)CC2)C1 [Example 268, (3-[3-(7H-pyrrolo[2,3-d]pyrimidin-4-yl)-1H-pyrrol-1-yl]-1-{1-[3-(trifluoromethyl)benzoyl]piperidin-4-yl}azetidin-3-yl)acetonitrile] |
| 5.0 | N#CCC1(n2ccc(-c3ncnc4[nH]ccc34)c2)CN(C2CCN(C(=O)c3cc(OC(F)(F)F)ccc3F)CC2)C1 [Example 269] |
| 6.1 | N#CCC1(n2ccc(-c3ncnc4[nH]ccc34)c2)CN(C2CCN(C(=O)c3c(F)ccc(F)c3F)CC2)C1 [Example 270, {3-[3-(7H-pyrrolo[2,3-d]pyrimidin-4-yl)-1H-pyrrol-1-yl]-1-[1-(2,3,6-trifluorobenzoyl)piperidin-4-yl]azetidin-3-yl}acetonitrile] |
| 7.8 | N#CCC1(n2ccc(-c3ncnc4[nH]ccc34)c2)CN(C2CCN(C(=O)c3cccs3)CC2)C1 [Example 271, {3-[3-(7H-pyrrolo[2,3-d]pyrimidin-4-yl)-1H-pyrrol-1-yl]-1-[1-(2-thienylcarbonyl)piperidin-4-yl]azetidin-3-yl}acetonitrile] |
| 6.5 | N#CCC1(n2ccc(-c3ncnc4[nH]ccc34)c2)CN(C2CCN(C(=O)c3ccc(C(F)(F)F)cc3F)CC2)C1 [Example 272, {1-{1-[2-fluoro-4-(trifluoromethyl)benzoyl]piperidin-4-yl}-3-[3-(7H-pyrrolo[2,3-d]pyrimidin-4-yl)-1H-pyrrol-1-yl]azetidin-3-yl}acetonitrile] |
| 4.4 | N#CCC1(n2ccc(-c3ncnc4[nH]ccc34)c2)CN(C2CCN(C(=O)c3cc(C(F)(F)F)ccc3F)CC2)C1 [Example 273, {1-{1-[2-fluoro-5-(trifluoromethyl)benzoyl]piperidin-4-yl}-3-[3-(7H-pyrrolo[2,3-d]pyrimidin-4-yl)-1H-pyrrol-1-yl]azetidin-3-yl}acetonitrile] |
| 9.0 | N#CCC1(n2ccc(-c3ncnc4[nH]ccc34)c2)CN(C2CCN(C(=O)c3cc(F)cc(C(F)(F)F)c3)CC2)C1 [Example 274, {1-{1-[3-fluoro-5-(trifluoromethyl)benzoyl]piperidin-4-yl}-3-[3-(7H-pyrrolo[2,3-d]pyrimidin-4-yl)-1H-pyrrol-1-yl]azetidin-3-yl}acetonitrile] |
| 3.1 | N#CCC1(n2ccc(-c3ncnc4[nH]ccc34)c2)CN(C2CCN(C(=O)c3ccc(F)c(C(F)(F)F)c3)CC2)C1 [Example 275, {1-{1-[4-fluoro-3-(trifluoromethyl)benzoyl]piperidin-4-yl}-3-[3-(7H-pyrrolo[2,3-d]pyrimidin-4-yl)-1H-pyrrol-1-yl]azetidin-3-yl}acetonitrile] |
| 4.0 | N#CCC1(n2ccc(-c3ncnc4[nH]ccc34)c2)CN(C2CCN(C(=O)c3cccc(F)c3F)CC2)C1 [Example 276, {1-[1-(2,3-difluorobenzoyl)piperidin-4-yl]-3-[3-(7H-pyrrolo[2,3-d]pyrimidin-4-yl)-1H-pyrrol-1-yl]azetidin-3-yl}acetonitrile] |
| 9.8 | N#CCC1(n2ccc(-c3ncnc4[nH]ccc34)c2)CN(C2CCN(C(=O)c3ccc(F)c(F)c3)CC2)C1 [Example 277, {1-[1-(3,4-difluorobenzoyl)piperidin-4-yl]-3-[3-(7H-pyrrolo[2,3-d]pyrimidin-4-yl)-1H-pyrrol-1-yl]azetidin-3-yl}acetonitrile] |
| 5.6 | N#CCC1(n2ccc(-c3ncnc4[nH]ccc34)c2)CN(C2CCN(C(=O)c3cc(F)ccc3F)CC2)C1 [Example 278, {1-[1-(2,5-difluorobenzoyl)piperidin-4-yl]-3-[3-(7H-pyrrolo[2,3-d]pyrimidin-4-yl)-1H-pyrrol-1-yl]azetidin-3-yl}acetonitrile] |
| 4.1 | N#CCC1(n2ccc(-c3ncnc4[nH]ccc34)c2)CN(C2CCN(C(=O)c3c(F)cccc3F)CC2)C1 [Example 279, {1-[1-(2,6-difluorobenzoyl)piperidin-4-yl]-3-[3-(7H-pyrrolo[2,3-d]pyrimidin-4-yl)-1H-pyrrol-1-yl]azetidin-3-yl}acetonitrile] |
| 7.5 | N#CCC1(n2ccc(-c3ncnc4[nH]ccc34)c2)CN(C2CCN(C(=O)c3ccc(F)c(F)c3F)CC2)C1 [Example 280, {3-[3-(7H-pyrrolo[2,3-d]pyrimidin-4-yl)-1H-pyrrol-1-yl]-1-[1-(2,3,4-trifluorobenzoyl)piperidin-4-yl]azetidin-3-yl}acetonitrile] |
| 10.0 | N#CCC1(n2ccc(-c3ncnc4[nH]ccc34)c2)CN(C2CCN(C(=O)c3cccc(OC(F)(F)F)c3F)CC2)C1 [Example 281, {1-{1-[2-fluoro-3-(trifluoromethoxy)benzoyl]piperidin-4-yl}-3-[3-(7H-pyrrolo[2,3-d]pyrimidin-4-yl)-1H-pyrrol-1-yl]azetidin-3-yl}acetonitrile] |
| 3.4 | N#CCC1(n2ccc(-c3ncnc4[nH]ccc34)c2)CN(C2CCN(C(=O)c3ccc(O)c(C(F)(F)F)c3)CC2)C1 [Example 282, {1-{1-[4-hydroxy-3-(trifluoromethyl)benzoyl]piperidin-4-yl}-3-[3-(7H-pyrrolo[2,3-d]pyrimidin-4-yl)-1H-pyrrol-1-yl]azetidin-3-yl}acetonitrile] |
| 5.8 | COc1ncccc1NC(=O)N1CCC(N2CC(CC#N)(n3ccc(-c4ncnc5[nH]ccc45)c3)C2)CC1 [Example 284, 4-{3-(cyanomethyl)-3-[3-(7H-pyrrolo[2,3-d]pyrimidin-4-yl)-1H-pyrrol-1-yl]azetidin-1-yl}-N-(2-methoxypyridin-3-yl)piperidine-1-carboxamide] |
| 5.7 | Cc1nc(C(F)(F)F)ccc1NC(=O)N1CCC(N2CC(CC#N)(n3ccc(-c4ncnc5[nH]ccc45)c3)C2)CC1 [Example 285, 4-{3-(cyanomethyl)-3-[3-(7H-pyrrolo[2,3-d]pyrimidin-4-yl)-1H-pyrrol-1-yl]azetidin-1-yl}-N-[2-methyl-6-(trifluoromethyl)pyridin-3-yl]piperidine-1-carboxamide] |
| 6.7 | N#CCC1(n2ccc(-c3ncnc4[nH]ccc34)c2)CN(C2CCN(C(=O)Nc3ccccc3C#N)CC2)C1 [Example 287, 4-{3-(cyanomethyl)-3-[3-(7H-pyrrolo[2,3-d]pyrimidin-4-yl)-1H-pyrrol-1-yl]azetidin-1-yl}-N-(2-cyanophenyl)piperidine-1-carboxamide] |

Reference: patent US10695337B2, “Piperidin-4-yl azetidine derivatives as JAK1 inhibitors” (Incyte Corporation, priority 2010, dated 2020)
